In experiment [1] the test system is platelets in whole blood. As to the kind of experiment: In vitro thrombus formation on type I collagen, whole blood perfused at arterial shear rate. The note with it: patients with ischaemic heart disease, 6 minutes, 1000 s^-1, student's t-test. It is filed as cell-based, human.
Experimental: Thrombus formation on immobilized type I collagen was performed using the VenaFlux Platform and Vena 8Fluor+Biochips (Cellix). Channels were coated overnight at 4° C. with collagen, then blocked with 1% BSA/PBS for 1 h and replaced with PBS. Blood was collected into sodium citrate (4% w/v). Platelets in whole blood were incubated with 10 mM DiOC6 (Thermo Fisher Scientific) for 10 min. Perfusion was performed at 37° C. with an arterial shear rate of 1000 s^−1 for at least 520 seconds. Thrombus formation was visualised using a 20× magnification lens on a Nikon A1-R confocal microscope. Images were brightness corrected and converted to a binary mask with software provided auto-thresholds. Binary Mask Particles were then analysed to determine thrombus count and size.
In experiment [2] the test system is platelets. Kind of experiment: PPAnalysis flow cytometry assay of platelet sensitivity (p-selectin exposure) to CRP-XL in patients with ischaemic heart disease. It is filed as cell-based, human. As to conditions: for sensitivity to CRP-XL of patients receiving aspirin compared with aspirin-free patients: patients with ischaemic heart disease, student's t-test. As for the experimental part:
The flow cytometry assay measured fluorescein isothiocyanate-conjugated anti-fibrinogen antibody and PE-Cy5-conjugated anti-P-selectin antibody binding following stimulation with ADP ([…]), collagen-related peptide (CRP; […]), epinephrine ([…]), thrombin receptor activator peptide 6 (TRAP-6; […]), and U46619 ([…]) using an Accuri C6 (B D, Winnersh, UK) for cohort 1 and a Beckman-Coulter EPICS Profile XL for cohort 2, as described in supplemental Section 2 of Dunster 2021 (Dunster et al. Multiparameter phenotyping of platelet reactivity for stratification of human cohorts, Blood Adv (2021) 5(20): 4017-4030).
A Platelet Phenomic Analysis (PPAnalysis) assay was carried out described in Dunster 2021. PPAnalysis comprises a flow cytometry-based assay and bespoke software that was developed to make data analysis simple, rapid, and reproducible. The assay simultaneously measures 2 aspects of platelet activation, fibrinogen binding (a marker of αllßb3 activation) and the exposure of P-selectin on the platelet surface (a marker of a-granule secretion). The supplementary information accompanying Dunster 2021 provides step-by-step instructions for setting up and carrying out the PPAnalysis assay and data analysis.
Background: In flow cytometry, cells or beads pass a laser one at a time.

The target in experiment [3] is T1, glycoprotein VI (GPVI) receptor (Homo sapiens, UniProt Q9HCN6).
T1 sequence (Q9HCN6 21-339): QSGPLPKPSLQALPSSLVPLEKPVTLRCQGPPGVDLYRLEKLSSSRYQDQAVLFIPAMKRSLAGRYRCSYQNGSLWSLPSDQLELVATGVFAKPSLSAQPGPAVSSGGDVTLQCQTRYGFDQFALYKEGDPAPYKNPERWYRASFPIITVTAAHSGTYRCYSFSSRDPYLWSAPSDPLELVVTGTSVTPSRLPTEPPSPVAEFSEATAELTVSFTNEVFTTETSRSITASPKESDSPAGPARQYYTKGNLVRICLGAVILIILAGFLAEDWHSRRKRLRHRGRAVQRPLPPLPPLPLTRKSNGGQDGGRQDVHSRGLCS
T1 sequence (P30273 19-86 partner): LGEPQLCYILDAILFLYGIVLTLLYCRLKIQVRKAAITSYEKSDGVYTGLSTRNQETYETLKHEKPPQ
The note with it: Smethurst et al.; cited from earlier work.

Entries after “also recorded” stand apart in the source; their conditions may differ.

As to `CC(=O)Oc1ccccc1C(=O)O` [aspirin], the “in vitro thrombus volume in patients with versus without aspirin” value in experiment [1] is “not reduced; also recorded: not significantly different”. Further, in experiment [2] (patients with ischaemic heart disease receiving ASA, mean ± spread, ASA free patients 7.4±0.49), the “sensitivity to CRP-XL of patients receiving ASA” value was 7.2±0.37 log g/mL. Also, the “sensitivity to CRP-XL of patients receiving aspirin compared with aspirin-free patients” value is given as “lower sensitivity to CRP-XL” in experiment [2] and “significantly lower” in experiment [2] (listed as ASA).

In the case of (GPC-(GPO)10-GPCG-amide)3 [CRP-XL], the “platelet agonist potency compared with non-cross-linked CRP” value in experiment [3] is on record as “more potent platelet agonist”.

These data come from patent publication US20260276652A1, “METHODS FOR ASSESSING PLATELET FUNCTION” (UNIVERSITY OF READING, priority 2023, published 2026).
